Test results from PMC10985270 (Acta Pharmaceutica Sinica. B, 2024).
Read-outs that look alike come from different tables or passages of the source.

Columns and labels:
hMAO-B [1] = target: T1, hMAO-B (Homo sapiens, UniProt P27338); assay: hMAO-B fluorescence bioassay; assay type: biochemical; conditions: for SI: selectivity index for the MAO-B isoform: ratio IC50(MAO-A)/IC50(MAO-B)
T1 sequence (P27338 1-520): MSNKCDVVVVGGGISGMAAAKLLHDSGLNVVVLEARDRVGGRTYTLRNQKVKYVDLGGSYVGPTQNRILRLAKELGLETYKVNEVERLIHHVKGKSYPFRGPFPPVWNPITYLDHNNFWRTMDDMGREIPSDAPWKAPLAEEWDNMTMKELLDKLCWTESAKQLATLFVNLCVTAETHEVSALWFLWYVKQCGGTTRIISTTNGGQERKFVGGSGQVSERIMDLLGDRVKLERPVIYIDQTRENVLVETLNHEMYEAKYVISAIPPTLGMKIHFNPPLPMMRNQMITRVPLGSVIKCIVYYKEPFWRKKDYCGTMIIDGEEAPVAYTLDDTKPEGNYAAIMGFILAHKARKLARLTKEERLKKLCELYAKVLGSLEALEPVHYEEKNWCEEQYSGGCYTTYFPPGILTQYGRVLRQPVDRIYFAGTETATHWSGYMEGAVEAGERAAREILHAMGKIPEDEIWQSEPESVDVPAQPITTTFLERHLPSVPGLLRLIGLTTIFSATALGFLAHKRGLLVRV

hMAO-A = target: T2, hMAO-A (Homo sapiens, UniProt P21397); assay: hMAO-A fluorescence bioassay; assay type: biochemical
T2 sequence (P21397 1-527): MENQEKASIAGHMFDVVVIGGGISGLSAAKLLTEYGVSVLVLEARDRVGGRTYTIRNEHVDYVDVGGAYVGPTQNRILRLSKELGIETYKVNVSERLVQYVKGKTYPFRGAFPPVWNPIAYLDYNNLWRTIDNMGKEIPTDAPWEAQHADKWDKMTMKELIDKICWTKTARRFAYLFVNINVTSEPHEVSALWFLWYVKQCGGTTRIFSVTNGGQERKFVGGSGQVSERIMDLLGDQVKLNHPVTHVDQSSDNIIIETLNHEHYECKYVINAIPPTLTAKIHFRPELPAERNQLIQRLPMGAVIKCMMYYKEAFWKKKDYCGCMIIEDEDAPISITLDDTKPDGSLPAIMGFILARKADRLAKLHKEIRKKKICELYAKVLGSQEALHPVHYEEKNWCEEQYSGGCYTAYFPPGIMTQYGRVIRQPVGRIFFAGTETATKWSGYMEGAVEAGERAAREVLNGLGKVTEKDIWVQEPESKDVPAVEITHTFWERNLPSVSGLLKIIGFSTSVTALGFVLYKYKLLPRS

hMAO-B [2] = target: T1, hMAO-B; assay: At-line nanofractionation hMAO-B screening of mixed standards; assay type: biochemical; conditions: mixed standards 100 μmol/L
hMAO-B [3] = target: T1, hMAO-B; assay: Reversibility of hMAO-B inhibition; assay type: biochemical; conditions: KYN 46 μmol/L
SH-SY5Y cells = assay: Neuroprotection against 6-OHDA-induced toxicity in SH-SY5Y cells; assay type: cell-based; conditions: Homo sapiens, read-out: EC50, neuroprotective effect

SI: selectivity index for the MAO-B isoform (hMAO-B [1])	IC50 (hMAO-A)	IC50 (hMAO-B [1])	SMILES	EC50 (SH-SY5Y cells)	other results
1.840	60.9 ± 5.85 µM	–	O=C(O)/C=C/c1ccc(O)c(O)c1 [Caffeic acid]	–	IC50 (hMAO-B [1]; Inhibition (IC50) hMAO-B, Table 1): 33.1 ± 7.57 µM
–	–	24 µM	COc1ccc(-c2coc3cc(O)ccc3c2=O)cc1O [Calycosin, reference compound]	–	Activity peak in bioactivity chromatogram (hMAO-B [2]): displayed inhibitory activity
–	82.4 ± 14.6 µM	69.6 ± 14.4 µM	O=C(/C=C/c1ccc(O)c(O)c1)O[C@@H]1C[C@](O)(C(=O)O)C[C@@H](O)[C@H]1O [Chlorogenic acid]	–	–
207.362	102 ± 13.1 µM	0.494 ± 0.132 µM	CCCC[C@@H]1OC(=O)C2=CCCC[C@H]21 [Neocnidilide]	1.16 µM	Inhibitory activity against hMAO-B (in words) (hMAO-B [1]; phthalides): highest activity; SI: selectivity index for the MAO-B isoform (hMAO-B [1]; listed as neocnidilide): 207; Reversibility of hMAO-B inhibition (hMAO-B [3]): reversible
–	–	–	C#CCN[C@@H]1CCc2ccccc21 [Rasagiline]	0.896 µM	Activity peak in bioactivity chromatogram (hMAO-B [2]): displayed inhibitory activity
–	–	–	C[C@H](NCc1ccc(OCc2cccc(F)c2)cc1)C(N)=O [Safinamide, reference compound]	1.08 µM	Reversibility of hMAO-B inhibition (hMAO-B [3]): reversible
1.884	86.1 ± 15.3 µM	45.7 ± 2.6 µM	COc1cc(C=O)ccc1O [Vanillin]	–	–
